In PMC4697807, “Novel Zn^2+ Modulated GPR39 Receptor Agonists Do Not Drive Acute Insulin Secretion in Rodents” (PLoS ONE, 2015):
Read-outs that look alike come from different tables or passages of the source.

Assays:
Assay type in all cases: cell-based
GPR39 [1] = biological target: T1, GPR39 (Homo sapiens, UniProt O43194); assay: DMR positive allosteric modulator (PAM) experiments, compound and Zn^2+ interdependencies; design: Full length human (AF034633), rat (DM091294) and mouse (BC085285) GPR39; expressed in transfected cells
T1 sequence (O43194 1-453): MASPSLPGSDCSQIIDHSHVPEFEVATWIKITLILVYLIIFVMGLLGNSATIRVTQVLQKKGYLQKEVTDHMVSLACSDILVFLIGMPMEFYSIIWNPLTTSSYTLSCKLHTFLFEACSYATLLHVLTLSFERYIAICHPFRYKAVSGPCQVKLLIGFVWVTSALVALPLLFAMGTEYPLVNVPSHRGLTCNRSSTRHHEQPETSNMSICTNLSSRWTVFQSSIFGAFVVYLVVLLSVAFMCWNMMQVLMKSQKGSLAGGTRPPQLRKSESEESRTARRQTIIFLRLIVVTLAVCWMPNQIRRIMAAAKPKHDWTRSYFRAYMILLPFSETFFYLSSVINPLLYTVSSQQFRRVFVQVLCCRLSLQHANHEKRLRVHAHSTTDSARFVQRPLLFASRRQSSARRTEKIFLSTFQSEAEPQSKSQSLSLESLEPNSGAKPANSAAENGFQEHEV
Experimental: (§1) DMR assays were performed using an Epic instrument (Corning Inc., Corning, NY). 12,000 cells per well were cultured for 24 h in 384-well fibronectin-coated Epic biosensor plates (Corning). On the day of experiment, culture medium was removed and replaced with 30 μl buffer A (HBSS, HEPES 20 mM pH7.4, 1% DMSO, 0.01% BSA) using an EL406 (Bio-Tek). Plates were incubated at 26 °C for 1 h inside the Epic to allow for temperature equilibration. A baseline was read for 2 min, and then 15 μl compounds in buffer A were added using a CyBi-Well vario (CyBio) and DMR was detected during 45 min.
Concentration response curves for the interaction between ortosteric and allosteric ligands in the DNR assay were globally fitted to the operational model of allosterism and agonism as described in Leach et al.. Binding data were fitted using one site or two site binding models.
Utilizing the DMR platform, positive allosteric modulator (PAM) experiments were performed in order to more accurately determine the influences of Zn^2+ on the three compounds, see Fig 4. Compound dose responses were generated at 10 different Zn^2+ concentrations, spanning 0 to 30 μM. The presence of Zn^2+ increased potencies of compounds up to 10000-fold. Data were initially globally fitted to the operational model of allosterism and agonism described by Leach et al. However, fits obtained were not of sufficient quality. We therefore decided to calculate modulation in a more simplistic way, here called PAM EC50 and defined as the concentration of modulator (Zn^2+) causing half maximum potentiation of agonist potency.

GPR39 [2] = biological target: T1, GPR39; assay: Dynamic mass redistribution (DMR) label-free assay, HEK293s-hGPR39 cells; design: Full length human (AF034633), rat (DM091294) and mouse (BC085285) GPR39; expressed in transfected cells; host or cells: HEK293s (ATCC CRL-1573), pIRESneo3 vector, selected clones; conditions: for Efficacy at 33 μM: AZ1395 100% reference
Text: (§2) Full length human (AF034633), rat (DM091294) and mouse (BC085285) GPR39 (GeneArt–Life Technologies, Carlsbad, CA) were subcloned into the pIRESneo3 vector (Clontech, Mountain View, CA). The resulting expression vectors hGPR39-, rGPR39- and mGPR39-pIRESneo3 were transfected into HEK293s cells (ATCC CRL-1573) using Lipofectamine 2000 (Life Technologies). Individual clones were isolated using flow cytometry with a FACSVantage SE DIVA (Becton Dickinson, Franklin Lakes, NJ) and clones were chosen based on responses to Zn^2+ measured in a cAMP assay (see below). […] HEK293s-derived cell lines were cultured at 37°C, 10% CO2 and 95% humidity in DMEM supplemented with 10% FBS and 600 μg/ml Geneticin (Life Technologies). The mouse pancreas epithelial cell line NIT-1 (ATCC CRL-2055) with endogenous expression of GPR39 was cultured at 37°C, 5% CO2, and 95% humidity in Ham´s F12 (Life Technologies) supplemented with 10% FBS.
as §1
(§3) Concentration response data were fitted with a four parameter logistic fit using Eq 1, y=A+((B−A)/1+((C/x)^D))) (1) where A is no activation, B is full activation, C is the EC50 and D is the Hill slope.

rGPR39 = biological target: T2, rGPR39 (Rattus norvegicus, UniProt A0A8J8Y1V6); assay: DMR label-free assay, HEK293s cells transfected with rat GPR39
T2 sequence (A0A8J8Y1V6 1-456): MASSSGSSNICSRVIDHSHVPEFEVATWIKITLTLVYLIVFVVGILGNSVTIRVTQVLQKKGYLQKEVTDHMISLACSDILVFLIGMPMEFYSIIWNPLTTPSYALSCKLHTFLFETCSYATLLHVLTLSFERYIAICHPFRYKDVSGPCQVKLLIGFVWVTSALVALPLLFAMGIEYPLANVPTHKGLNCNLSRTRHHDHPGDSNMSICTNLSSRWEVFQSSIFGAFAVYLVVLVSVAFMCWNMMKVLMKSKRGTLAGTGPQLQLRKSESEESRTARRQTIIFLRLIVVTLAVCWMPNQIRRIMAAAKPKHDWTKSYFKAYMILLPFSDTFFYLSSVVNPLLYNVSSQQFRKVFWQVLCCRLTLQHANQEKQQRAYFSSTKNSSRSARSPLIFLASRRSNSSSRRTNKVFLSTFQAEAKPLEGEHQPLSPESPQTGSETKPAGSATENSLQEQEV
Text: as §2, §1, §3

[3] = absence (w/o) of Zn^2+, read-out: EC50
[4] = absence (w/o) of Zn^2+, read-out: pEC50 ± SD (converted)
[5] = presence of 5 μM Zn^2+, read-out: EC50
[6] = presence of 5 μM Zn^2+, read-out: pEC50 ± SD (converted)

SMILES | EC50 (rGPR39; [3]) [nM] | EC50 (rGPR39; [5]) [nM] | EC50 (rGPR39; [6]) [nM] | EC50 (GPR39 [1]; [Zn2+] μM: 0) [µM] | EC50 (GPR39 [1]; [Zn2+] μM: 1e-7) [µM] | EC50 (GPR39 [1]; [Zn2+] μM: 5e-7) [µM] | EC50 (GPR39 [1]; [Zn2+] μM: 1e-6) [µM] | EC50 (GPR39 [1]; [Zn2+] μM: 5e-6) [µM] | EC50 (GPR39 [1]; [Zn2+] μM: 7e-6) [µM] | EC50 (GPR39 [1]; [Zn2+] μM: 1e-5) [µM] | EC50 (GPR39 [1]; [Zn2+] μM: 2e-5) [µM] | EC50 (GPR39 [1]; [Zn2+] μM: 3e-5) [µM] | EC50 (GPR39 [1]; [Zn2+] μM: 3) [µM] | EC50 (GPR39 [2]; [6]) [nM] | Efficacy at 33 μM (GPR39 [2]; absence (w/o) of Zn^2+) [%] | EC50 (GPR39 [2]; [3]) [nM] | further results
[Zn+2] [Zn^2+] |  |  |  |  |  |  |  |  |  |  |  |  |  |  |  |  | Emax for Zn^2+ alone, of Emax for Zn^2+ together with any of the GPR39 agonists (GPR39 [1]; Zn^2+ alone): approximately 35%; Emax relative to the 100% efficacy reference AZ1395 (GPR39 [2]; Zn^2+ by itself): ~35%; pEC50 ± SD (GPR39 [2]; Zn^2+ by itself): (4.87 ± 0.05); EC50 (GPR39 [2]; Zn^2+ by itself, read-out: EC50): 13000 nM
N#Cc1ccc(OCCn2ccnc2)c(OCCn2ccnc2)c1 [AZ1395, 3,4-bis-(2-imidazol-1-ylethoxy)-benzonitrile] | 5100 | 33 | 33.1 | 3 | 2.6 | 2.4 | 1.7 | 0.057 | 0.015 | 0.014 | 0.0035 | 0.0027 | 0.16 | 35.5 |  |  | EC50 (rGPR39; [4]): 5130 nM; Emax (GPR39 [1]; in the absence of Zn^2+): ~75%; EC50 (GPR39 [2]; [4]): 2290 nM; EC50 (GPR39 [2]; [5]): 36 nM
Cc1nc2c(C(=O)O)cnn2c(O)c1Cc1ccc(Cl)cc1 [AZ4237, 6-[(4-chlorophenyl)methyl]-7-hydroxy-5-methyl-pyrazolo[1,5-a]pyrimidine-3-carboxylic acid] | > 33000 | 150 | 148 | > 33 | > 33 | > 33 | 8.3 | 0.058 | 0.045 | 0.015 | 0.0074 | 0.003 | 0.58 | 191 | 20 | > 33000 | 
Cc1nc(-c2nc3c(c(=O)[nH]2)CN(C(=O)c2cccc(Cl)c2F)CC3)cs1 [AZ7914, 6-(3-chloro-2-fluoro-benzoyl)-2-(2-methylthiazol-4-yl)-3,5,7,8-tetrahydropyrido-[4,3-d]pyrimidin-4-one] | 7400 | 150 | 148 | > 33 | > 33 | > 33 | > 33 | 0.29 | 0.09 | 0.042 | 0.0095 | 0.0063 | 1.6 | 102 | 39 | > 33000 | 
